In patent US11632963B2, “Tuber storage” (Arysta Lifescience Benelux Sprl, priority 2014, dated 2023):

Key:
[1] = tested on: Potatoes from the variety Bintje, Innovator and Nicola; assay: Fresh sprout weight of stored potatoes treated by fogging (Example 7); assay type: in vivo, Solanum tuberosum; conditions: Treatment at 50 ml/ton, corresponding to 450 g limonene/ton or 450 ppm
Protocol: Potatoes were treated with 100% orange oil every 3 weeks via application by cold fogging using a potato mist blower VEUGEN in the above part of a storage cell between bag fillings and the top of the cell.
Potatoes from the variety Bintje, Innovator and Nicola were stored in a storage room and each storage room (trail number) was treated with a different product in the anti-sprouting treatment. BIO-024 stands for Orange oil, with at least 900 g limonene/1, BIOX M is a trade name of a mint oil based product that is commercially available as an anti-sprouting agent, Gro Stop fog is a trade name of a CIPC containing product for the treatment of sprouting of potatoes.
An overview of the fresh sprout weight and the weight loss of samples that were taken on 11 February, 11 March, 8 April and 6 May is given in Table 6. […] Storage was carried out from 11 October until 16 May the year after, all products were applied by fogging.
Fresh sprout weight was assessed by weighing all sprouts per sample. Sprout weight was calculated for a standard sized sample of 1.0 kg potatoes: Fresh sprout weight(g)=fresh sprout weight sample/(weight sample unloading−sprouts)

[2] = tested on: potatoes (Bintje and Innovator); assay: Tuber treatment in cabins, sprout formation (Example 2); assay type: in vivo, Solanum tuberosum; conditions: 600 EC limonene composition, 90 ml/1000 kg then 30 or 90 ml/1000 kg every 3 weeks, fogging
Protocol: In a second example, use of a 600 EC limonene composition according to example 1 the treatment of potatoes is illustrated.
In this example, 10 equal amounts of potatoes (20 kg Bintje and 20 kg Innovator) were treated in 5 different cabins. The first cabin acted as a control. No treating agent was applied in the first cabin.
In cabin 4, a composition according to example 1 was used, with limonene as active ingredient. The first application was done 2 weeks after harvesting at a concentration of 90 ml/1000 kg potatoes. After this application, the next applications were at a dose of 30 ml/1000 kg potatoes.
In cabin 5, the same composition as used in cabin 4 was used with 600 g/l limonene as active ingredient. The first application was done 2 weeks after harvesting at a concentration of 90 ml/1000 kg potatoes. Every 3 weeks the application was repeated at the same dose.
For all the cabins, the first treatment was on 22 October, 2 weeks after harvest. The potatoes were investigated for sprout formation at February 5, the next year, March 4, and April, 4. For each amount of potatoes the weight loss was determined, the sprout index was determined and the sprout weight was measured.
The sprout weight expressed in grams of the “Innovator”-variety potatoes is depicted in FIG. 3 for each cabin and at the 3 different times, corresponding to around 4, 5 and 6 months after harvest.

potatoes [3] = conditions: WO 92/10934, cited from earlier work
potatoes [4] = conditions: 45 g/ton at start and 15 g/ton every 20 days, after 5 months, WO 00/32063, cited from earlier work

C=C(C)[C@H]1CC=C(C)CC1 [limonene]
effectiveness to reach the levels of control obtainable by CIPC or mint oil [1]: not sufficiently effective
effectiveness as treatment agent on its own (sprout formation) [2]: sufficient effectiveness
influence on potato sprouting (potatoes [3]; headspace concentration of 1.70 mg/L after 7 days): did not have an influence on potato sprouting
eyes with sprouts (potatoes [3]; three unsprouted potatoes exposed to a 2 ml limonene soaked filter paper in a desiccator flask): 0%
weight loss (potatoes [4]; 60 wt % limonene composition, untreated control 5.4%): 4.5%
sprout growth (potatoes [4]; limonene as 60 wt % composition, untreated control 100%): 96.8%
